Columns and labels:
[1] = test system: JAK2-dependent phosphorylation of STAT5 (phospho-Y694) in AGS gastric cancer cell line; test: Western blot of STAT5 phosphorylation in AGS cells; type: cell-based; details: 24 hours, 5-10 uM, densitometry
Procedure: (§1) In order to detect specific inhibition of JAK2 enzyme in cell culture, Western blot assays may also be performed. For this, cells which have been treated with a potential JAK2 inhibitor are lysed with a buffer specific for the isolation and preservation of proteins (1% Nonidet P-40, 120 mM NaCl, 30 mM Tris pH 7.4, 1:100 Protease Inhibitor Cocktail III [Calbiochem/EMD Biosciences], 1:100 Phosphatase Inhibitor Cocktail 1 [Sigma-Aldrich, Saint Louis, Mo.], 1:100 Phosphatase Inhibitor Cocktail 2 [Sigma-Aldrich, Saint Louis, Mo.]). The protein concentration in these lysates is then quantified using the BCA Protein Assay Kit (Pierce). Known amounts of protein, e.g. 50 ug, are loaded onto 10% SDS-polyacrylamide gels and are subjected to reducing, denaturing SDS-PAGE. […]
(§2) In this example, Compound 1-4 is shown to reduce the JAK2-dependent phosphorylation of STAT3 and STAT5 in the AGS gastric cancer cell line. […] Following incubation, cells were lysed and total protein isolated and quantified. […] Densitometry analysis was performed in order to quantify the amount of STAT3 and STAT5 phosphorylation in these treated cells. Phospho-STAT3 and phospho-STAT5 were compared to total STAT3 and STAT5 and the proportion of STAT phosphorylation relative to untreated controls was determined.

[2] = test system: JAK2-dependent phosphorylation of STAT3 (phospho-Y705) in AGS gastric cancer cell line; test: Western blot of STAT3 phosphorylation in AGS cells; type: cell-based; details: 24 hours, 5-10 uM, densitometry
Procedure: as §1, §2

## CN1CCN(c2ccc(Nc3nccc(Nc4ccc(F)c(Cl)c4)n3)cc2)CC1 [Compound 1-4, N4-(3-chloro-4-fluorophenyl)-N2-(4-(4-methylpiperazin-1-yl)phenyl)pyrimidine-2,4-diamine]
[1]
  STAT5 phosphorylation relative to untreated controls: reduce
[2]
  STAT3 phosphorylation relative to untreated controls: reduce

— patent US20100029675A1, “Pyrimidine-2, 4-diamine JAK2 Kinase inhibiting anti-inflammation use” (priority 2008, published 2010)
